Results as given in US20230000813A1, “COMPOUND FOR THE TREATMENT OF BOVINE OR SWINE RESPIRATORY DISEASE” (Intervet Inc., priority 2016, published 2023).
In brackets after ≈: the same amount, converted by molar mass.

Experiments:
Assay in all cases: MIC, broth-microdilution (CLSI VET01-A4)
Type in all cases: cell-based
[1] = tested on: Mannheimia haemolytica MH 10720 (154, BRD field isolate); details: Mannheimia haemolytica MH 10720; for MIC: read-out: MIC MH 10720
Procedure, shortened: (§1)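 Doubling dilution series in microdilution trays; endpoint = lowest conc. without visible growth (no turbidity, unaided eye); interpretation per CLSI VET01-S3.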

[2] = tested on: Mannheimia haemolytica MH 12587 (1071, BRD field isolate, macrolide-resistance: erm+, E+); details: Mannheimia haemolytica MH 12587, macrolide-resistant
Procedure, shortened: as §1

[3] = tested on: Mannheimia haemolytica MH 6357 (M7/2, reference strain, cattle infection strain); details: Mannheimia haemolytica MH 6357; read-out: MIC MH 6357
Procedure, shortened: as §1

[4] = tested on: Mannheimia haemolytica MH 6374 (ATCC 33396, reference strain); details: Mannheimia haemolytica MH 6374; read-out: MIC MH 6374
Procedure, shortened: as §1

[5] = tested on: Pasteurella multocida PM 10775 (080130003051, BRD field isolate); details: Pasteurella multocida PM 10775
Procedure, shortened: as §1

[6] = tested on: Pasteurella multocida PM 12080 (IV102277-0093, BRD field isolate); details: Pasteurella multocida PM 12080; for MIC: read-out: MIC PM 12080
Procedure, shortened: as §1

[7] = tested on: Pasteurella multocida PM 6267 (P 2225 (L386), reference strain, mouse infection strain); details: Pasteurella multocida PM 6267
Procedure, shortened: as §1

[8] = tested on: Pasteurella multocida PM 6391 (ATCC 43137, reference strain); details: Pasteurella multocida PM 6391; for MIC: read-out: MIC PM 6391
Procedure, shortened: as §1

[9] = tested on: Mannheimia haemolytica MH 13065 (XB0446-6003.9, BRD field isolate)
Procedure, shortened: (§2)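 Broth microdilution per CLSI VET01-A4 using doubling dilution series of compound. MIC taken as the lowest concentration with no turbidity visible to the unaided eye, interpreted per CLSI VET01-S3.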

[10] = tested on: Mannheimia haemolytica MH 13093 (XB0472-6014.1, BRD field isolate)
Procedure, shortened: as §2

Row | SMILES | MIC MH 10720 [1] | MIC MH 12587 [2] | MIC [3] | MIC [4] | MIC PM 10775 [5] | MIC PM 12080 [6] | MIC PM 6267 [7] | MIC PM 6391 [8] | MIC [9] | MIC [10] | MIC [1] | MIC [6] | MIC [8] | MIC ([5]; read-out: MIC PM 10775)
1 | CC(C)(O)C(NC(=O)c1ccc(C#Cc2ccc(CNC3CC3)cc2)cc1)C(=O)NO (stereo not shown) [Compound 565] | <=0.1 μM | 1.6 µM (≈ 0.674 µg/mL) | 1.6 µM (≈ 0.674 µg/mL) | 0.4 µM (≈ 0.169 µg/mL) | <=0.1 μM | <=0.1 μM | <=0.1 μM | <=0.1 μM | 0.4 µM (≈ 0.169 µg/mL) | 0.8 µM (≈ 0.337 µg/mL) | – | – | – | –
2 | C#CCNCc1ccc(C#Cc2ccc(C(=O)NC(C(=O)NO)C(C)(C)N)cc2)cn1 (racemic) [Compound 647] | – | 1.6 µM (≈ 0.671 µg/mL) | 1.6 µM (≈ 0.671 µg/mL) | 0.8 µM (≈ 0.336 µg/mL) | <=0.1 μM | – | <=0.1 μM | – | 0.8 µM (≈ 0.336 µg/mL) | 0.8 µM (≈ 0.336 µg/mL) | 0.4 µM (≈ 0.168 µg/mL) | 0.4 µM (≈ 0.168 µg/mL) | 0.4 µM (≈ 0.168 µg/mL) | –
3 | CC(C)C(NC(=O)c1ccc(C#Cc2ccc(CNCc3cccnc3)cc2)cc1)C(=O)NO (stereo not shown) [Compound 287] | <=0.1 μM | 0.8 µM (≈ 0.365 µg/mL) | 0.4 µM (≈ 0.183 µg/mL) | 0.4 µM (≈ 0.183 µg/mL) | <=0.1 μM | – | <=0.1 μM | – | 0.8 µM (≈ 0.365 µg/mL) | 0.8 µM (≈ 0.365 µg/mL) | – | 0.2 µM (≈ 0.0913 µg/mL) | 0.4 µM (≈ 0.183 µg/mL) | –
4 | CC(C)([C@H](NC(=O)c1ccc(C#Cc2ccc(CNCC#N)cc2)cc1)C(=O)NO)S(C)(=O)=O [Compound 612] | <=0.1 μM | 1.6 µM (≈ 0.772 µg/mL) | 0.8 µM (≈ 0.386 µg/mL) | 0.4 µM (≈ 0.193 µg/mL) | <=0.1 μM | <=0.1 μM | <=0.1 μM | <=0.1 μM | 0.8 µM (≈ 0.386 µg/mL) | 0.8 µM (≈ 0.386 µg/mL) | – | – | – | –
5 | C[C@@H](O)[C@H](NC(=O)c1ccc(C#Cc2ccc(CNCc3ccccc3)s2)cc1)C(=O)NO [Compound 195] | <=0.1 μM | 0.8 µM (≈ 0.371 µg/mL) | 0.2 µM (≈ 0.0927 µg/mL) | 0.2 µM (≈ 0.0927 µg/mL) | <=0.1 μM | <=0.1 μM | <=0.1 μM | <=0.1 μM | 0.4 µM (≈ 0.185 µg/mL) | 0.4 µM (≈ 0.185 µg/mL) | – | – | – | –
6 | C[C@@H](O)[C@H](NC(=O)c1ccc(C#Cc2ccc(CN(C)Cc3ccccc3)o2)cc1)C(=O)NO [Compound 205] | <=0.1 μM | 1.6 µM (≈ 0.738 µg/mL) | 0.8 µM (≈ 0.369 µg/mL) | 0.8 µM (≈ 0.369 µg/mL) | <=0.1 μM | – | <=0.1 μM | – | 0.8 µM (≈ 0.369 µg/mL) | 1.6 µM (≈ 0.738 µg/mL) | – | 0.2 µM (≈ 0.0923 µg/mL) | 0.4 µM (≈ 0.185 µg/mL) | –
7 | CC(C)(O)[C@H](NC(=O)c1ccc(C#Cc2ccc(CNCc3nccs3)s2)cc1)C(=O)NO [Compound 735] | <=0.1 μM | 0.4 µM (≈ 0.194 µg/mL) | 0.4 µM (≈ 0.194 µg/mL) | 0.2 µM (≈ 0.0969 µg/mL) | – | <=0.1 μM | <=0.1 μM | <=0.1 μM | 0.2 µM (≈ 0.0969 µg/mL) | 0.4 µM (≈ 0.194 µg/mL) | – | – | – | 0.2 µM (≈ 0.0969 µg/mL)
8 | C[C@@H](O)[C@H](NC(=O)c1ccc(C#Cc2ccc(CNCc3ccccc3)cc2)cc1)C(=O)NO [Compound 2] | <=0.1 μM | 0.8 µM (≈ 0.366 µg/mL) | 0.2 µM (≈ 0.0915 µg/mL) | 0.2 µM (≈ 0.0915 µg/mL) | <=0.1 μM | <=0.1 μM | <=0.1 μM | <=0.1 μM | 1 µM (≈ 0.458 µg/mL) | 0.8 µM (≈ 0.366 µg/mL) | – | – | – | –
9 | Cc1ccc(CNCc2ccc(C#Cc3ccc(C(=O)NC(C(=O)NO)C(C)(C)O)cc3)cc2)cc1 (stereo not shown) [Compound 579] | <=0.1 μM | 1.6 µM (≈ 0.777 µg/mL) | 0.8 µM (≈ 0.388 µg/mL) | 0.4 µM (≈ 0.194 µg/mL) | <=0.1 μM | <=0.1 μM | <=0.1 μM | – | 0.4 µM (≈ 0.194 µg/mL) | 0.8 µM (≈ 0.388 µg/mL) | – | – | 0.2 µM (≈ 0.0971 µg/mL) | –
10 | C[C@@H](O)[C@H](NC(=O)c1ccc(C#Cc2ccc(CN3CCOCC3)s2)cc1)C(=O)NO [C. 192] | – | 1.6 µM (≈ 0.71 µg/mL) | 0.8 µM (≈ 0.355 µg/mL) | 0.8 µM (≈ 0.355 µg/mL) | <=0.1 μM | <=0.1 μM | <=0.1 μM | – | 0.8 µM (≈ 0.355 µg/mL) | 0.8 µM (≈ 0.355 µg/mL) | 0.2 µM (≈ 0.0887 µg/mL) | – | 0.2 µM (≈ 0.0887 µg/mL) | –
